Consider 63 compounds from ChEMBL document CHEMBL1125122, “Antibacterials. Synthesis and structure-activity studies of 3-aryl-2-oxooxazolidines. 2. The "A" group” (1990).

In one experiment the test system is Enterococcus faecalis. In words: In vitro for antibacterial activity against Enterococcus faecalis strain STCO-19. Type of experiment: functional.
Another experiment deals with Staphylococcus aureus. In words: In vitro for antibacterial activity against Staphylococcus aureus strain SFCO-1a. Type of experiment: functional.

SMILES strings stand for the structures. Converted amounts (≈) assume the structure as drawn. Where only a bound is given, the exact number is not on record here.

As to `CCCCc1ccc(N2CC(CNC(C)=O)OC2=O)cc1` (racemic), the MIC against Enterococcus faecalis and in the experiment with Staphylococcus aureus was 4 µg/mL (≈ 13.8 µM) throughout.
For `CC(=O)NC[C@H]1CN(c2ccc(C(F)(F)C(F)(F)F)cc2)C(=O)O1`, the MIC in the experiment on Enterococcus faecalis and against Staphylococcus aureus was 2 µg/mL (≈ 5.68 µM) throughout.
Take `CC(=O)NC[C@H]1CN(c2ccc(S(=O)(=O)CF)cc2)C(=O)O1`: the MIC in the experiment on Enterococcus faecalis and with Staphylococcus aureus was 1 µg/mL (≈ 3.03 µM) throughout.
For the compound `CC(=O)NCC1CN(c2ccc(C#N)cc2)C(=O)O1` (racemic), the MIC against Enterococcus faecalis and in the experiment on Staphylococcus aureus was 16 µg/mL (≈ 61.7 µM) throughout.
Consider `CC(=O)NC[C@H]1CN(c2ccc(S(=O)(=O)C(F)(F)F)cc2)C(=O)O1`, for which the MIC with Enterococcus faecalis and in the experiment with Staphylococcus aureus was 2 µg/mL (≈ 5.46 µM) each time.
As to `CC(=O)NCC1CN(c2ccc(CO)cc2)C(=O)O1` (racemic), the minimum inhibitory concentration (MIC) with Enterococcus faecalis was determined as 16 µg/mL (≈ 60.5 µM); with Staphylococcus aureus it was 32 µg/mL (≈ 121 µM).
Taken in the same sequence, the figures for `CC(=O)NC[C@H]1CN(c2ccc(C)cc2)C(=O)O1` were 32 µg/mL (≈ 129 µM) and 32 µg/mL (≈ 129 µM).
Taken in the same sequence, the figures for `COc1ccc(N2CC(CNC(C)=O)OC2=O)cc1` (racemic) were 32 µg/mL (≈ 121 µM) and 32 µg/mL (≈ 121 µM).
As to `CCSc1ccc(N2C[C@H](CNC(C)=O)OC2=O)cc1`, the MIC with Enterococcus faecalis worked out at 2 µg/mL (≈ 6.79 µM); with Staphylococcus aureus it was 1 µg/mL (≈ 3.4 µM).
Taken in the same sequence, the figures for `CCCc1ccc(N2C[C@H](CNC(C)=O)OC2=O)cc1` were 4 µg/mL (≈ 14.5 µM) and 2 µg/mL (≈ 7.24 µM).
For `CC(=O)NC[C@H]1CN(c2ccc(SC(F)(F)F)cc2)C(=O)O1`, the minimal inhibitory concentration (MIC) against Enterococcus faecalis and with Staphylococcus aureus was 4 µg/mL (≈ 12 µM) each time.
Take `CCC/C(=N/O)c1ccc(N2C[C@H](CNC(C)=O)OC2=O)cc1`: the minimum inhibitory concentration (MIC) against Enterococcus faecalis and in the experiment on Staphylococcus aureus was 4 µg/mL (≈ 12.5 µM) each time.
As for `CC(=O)NC[C@H]1CN(c2ccc([N+](=O)[O-])cc2)C(=O)O1`, the minimal inhibitory concentration (MIC) in the experiment with Enterococcus faecalis and in the experiment with Staphylococcus aureus was 2 µg/mL (≈ 7.16 µM) each time.
On to `CC(=O)NC[C@H]1CN(c2ccc(Sc3ccccc3)cc2)C(=O)O1`, for which the minimal inhibitory concentration (MIC) was 128 µg/mL (≈ 374 µM) with Enterococcus faecalis and over 128 µg/mL in the experiment with Staphylococcus aureus.
Taken in the same sequence, the figures for `CC(=O)NCC1CN(c2ccc(F)cc2)C(=O)O1` (racemic) were over 64 µg/mL and over 64 µg/mL.
Taken in the same sequence, the figures for `CC(=O)NCC(=O)c1ccc(N2C[C@H](CNC(C)=O)OC2=O)cc1` were 16 µg/mL (≈ 48 µM) and 8 µg/mL (≈ 24 µM).
Taken in the same sequence, the figures for `CC(=O)NC[C@@H]1CN(c2ccc(S(C)=O)cc2)C(=O)O1` (stereo partly specified) were 4 µg/mL (≈ 13.5 µM) and 4 µg/mL (≈ 13.5 µM).
In the case of `CC(=O)Cc1ccc(N2C[C@H](CNC(C)=O)OC2=O)cc1`, the MIC stood at 8 µg/mL (≈ 27.6 µM) against Enterococcus faecalis and 4 µg/mL (≈ 13.8 µM) against Staphylococcus aureus.
With `CCN(CC)c1ccc(N2C[C@H](CNC(C)=O)OC2=O)cc1`, the minimum inhibitory concentration (MIC) against Enterococcus faecalis was determined as 16 µg/mL (≈ 52.4 µM); in the experiment on Staphylococcus aureus, 8 µg/mL (≈ 26.2 µM).
As for `CC[S+]([O-])c1ccc(N2CC(CNC(C)=O)OC2=O)cc1` (single isomer, unassigned), the minimum inhibitory concentration (MIC) against Enterococcus faecalis and against Staphylococcus aureus was 16 µg/mL (≈ 51.6 µM) throughout.
In the case of `CC(=O)NC[C@H]1CN(c2ccc(C(=O)COC(C)=O)cc2)C(=O)O1`, the MIC came to 2 µg/mL (≈ 5.98 µM) in the experiment on Enterococcus faecalis and 0.5 µg/mL (≈ 1.5 µM) in the experiment with Staphylococcus aureus.
`CC(=O)NC[C@H]1CN(c2ccc([S@+](C)[O-])cc2)C(=O)O1`: the values for the minimum inhibitory concentration (MIC) in the experiment with Enterococcus faecalis and in the experiment with Staphylococcus aureus were 16 µg/mL (≈ 54 µM) and 8 µg/mL (≈ 27 µM), respectively.
Consider `CC(=O)NC[C@H]1CN(c2ccc(C(O)C(C)C)cc2)C(=O)O1` (stereo partly specified), for which the MIC in the experiment with Enterococcus faecalis was 8 µg/mL (≈ 26.1 µM); against Staphylococcus aureus, 4 µg/mL (≈ 13.1 µM).
For the compound `CC(=O)NC[C@H]1CN(c2ccc(C(=O)CF)cc2)C(=O)O1`, the minimal inhibitory concentration (MIC) against Enterococcus faecalis and in the experiment on Staphylococcus aureus was 2 µg/mL (≈ 6.8 µM) each time.
Take `C#Cc1ccc(N2C[C@H](CNC(C)=O)OC2=O)cc1`: the MIC against Enterococcus faecalis and against Staphylococcus aureus was 16 µg/mL (≈ 61.9 µM) each time.
Take `CC(=O)NC[C@H]1CN(c2ccc([S+](C)[O-])cc2)C(=O)O1` (stereo partly specified): the MIC with Enterococcus faecalis and against Staphylococcus aureus was 4 µg/mL (≈ 13.5 µM) throughout.
As for `CC(=O)NC[C@H]1CN(c2ccc(I)cc2)C(=O)O1`, the MIC with Enterococcus faecalis and against Staphylococcus aureus was 8 µg/mL (≈ 22.2 µM) each time.
On to `CC(=O)NC[C@H]1CN(c2ccc(C(C)=O)cc2)C(=O)O1` [DUP-721], for which the MIC turned out to be 1 µg/mL (≈ 3.62 µM) with Enterococcus faecalis and 0.5 µg/mL (≈ 1.81 µM) in the experiment on Staphylococcus aureus.
As to `CC(=O)NC[C@H]1CN(c2ccc(N(C)C)cc2)C(=O)O1`, the minimum inhibitory concentration (MIC) against Enterococcus faecalis and with Staphylococcus aureus was 16 µg/mL (≈ 57.7 µM) in each case.
Turning to `CC(=O)NC[C@H]1CN(c2ccc(C(C)(C)O)cc2)C(=O)O1`, the results for the MIC in the experiment on Enterococcus faecalis and in the experiment on Staphylococcus aureus were 4 µg/mL (≈ 13.7 µM) and 2 µg/mL (≈ 6.84 µM), respectively.
Taken in the same sequence, the figures for `CCCC(=O)c1ccc(N2C[C@H](CNC(C)=O)OC2=O)cc1` were 0.25 µg/mL (≈ 0.821 µM) and 0.25 µg/mL (≈ 0.821 µM).
Taken in the same sequence, the figures for `CC(=O)NC[C@H]1CN(c2ccc(C(=O)CCl)cc2)C(=O)O1` were 2 µg/mL (≈ 6.44 µM) and 0.5 µg/mL (≈ 1.61 µM).
Taken in the same sequence, the figures for `CC(=O)NCC1CN(c2ccc(Oc3ccccc3)cc2)C(=O)O1` (racemic) were 64 µg/mL (≈ 196 µM) and 64 µg/mL (≈ 196 µM).
Turning to `CC(=O)NC[C@H]1CN(c2ccc(/C=N\O)cc2)C(=O)O1`, the MIC with Enterococcus faecalis and in the experiment on Staphylococcus aureus was 16 µg/mL (≈ 57.7 µM) throughout.
For `CC(=O)NCC1CN(c2ccc(C(C)C)cc2)C(=O)O1` (racemic), the minimum inhibitory concentration (MIC) with Enterococcus faecalis and in the experiment on Staphylococcus aureus was 4 µg/mL (≈ 14.5 µM) in each case.
As for `CC(=O)NC[C@H]1CN(c2ccc(/C(C)=N\O)cc2)C(=O)O1`, the MIC came out at 2 µg/mL (≈ 6.87 µM) with Enterococcus faecalis and 4 µg/mL (≈ 13.7 µM) against Staphylococcus aureus.
Taken in the same sequence, the figures for `CC(=O)NC[C@H]1CN(c2ccc([S+]([O-])C(F)(F)F)cc2)C(=O)O1` (stereo partly specified) were 2 µg/mL (≈ 5.71 µM) and 2 µg/mL (≈ 5.71 µM).
Taken in the same sequence, the figures for `CC(=O)NC[C@H]1CN(c2ccccc2)C(=O)O1` were 128 µg/mL (≈ 546 µM) and 128 µg/mL (≈ 546 µM).
Taken in the same sequence, the figures for `CC(=O)NC[C@H]1CN(c2ccc([S+]([O-])CF)cc2)C(=O)O1` (stereo partly specified) were 8 µg/mL (≈ 25.5 µM) and 8 µg/mL (≈ 25.5 µM).
On to `CC(=O)NC[C@H]1CN(c2ccc(C(C)(C)C)cc2)C(=O)O1`, for which the MIC was determined as 2 µg/mL (≈ 6.89 µM) with Enterococcus faecalis and 1 µg/mL (≈ 3.44 µM) with Staphylococcus aureus.
Turning to `CC(=O)NC[C@H]1CN(c2ccc(S(C)(=O)=O)cc2)C(=O)O1`, the minimum inhibitory concentration (MIC) against Enterococcus faecalis and against Staphylococcus aureus was 4 µg/mL (≈ 12.8 µM) in each case.
Turning to `CC(=O)NC[C@H]1CN(c2ccc(N)cc2)C(=O)O1`, the MIC in the experiment with Enterococcus faecalis and against Staphylococcus aureus was 128 µg/mL (≈ 513 µM) throughout.
With `CCC[S+]([O-])c1ccc(N2C[C@H](CNC(C)=O)OC2=O)cc1` (stereo partly specified), the MIC came out at 64 µg/mL (≈ 197 µM) in the experiment on Enterococcus faecalis and 32 µg/mL (≈ 98.6 µM) in the experiment with Staphylococcus aureus.
Taken in the same sequence, the figures for `CCCS(=O)(=O)c1ccc(N2C[C@H](CNC(C)=O)OC2=O)cc1` were 32 µg/mL (≈ 94 µM) and 32 µg/mL (≈ 94 µM).
Taken in the same sequence, the figures for `COC(=O)c1ccc(N2C[C@H](CNC(C)=O)OC2=O)cc1` were 2 µg/mL (≈ 6.84 µM) and 2 µg/mL (≈ 6.84 µM).
As for `C=Cc1ccc(N2C[C@H](CNC(C)=O)OC2=O)cc1`, the MIC with Enterococcus faecalis is 8 µg/mL (≈ 30.7 µM); against Staphylococcus aureus, 4 µg/mL (≈ 15.4 µM).
In the case of `CC(=O)NC[C@H]1CN(c2ccc(Br)cc2)C(=O)O1`, the minimum inhibitory concentration (MIC) came out at 8 µg/mL (≈ 25.5 µM) against Enterococcus faecalis and 16 µg/mL (≈ 51.1 µM) against Staphylococcus aureus.
In the case of `CC(=O)NC[C@H]1CN(c2ccc(C(=O)CC#N)cc2)C(=O)O1`, the minimal inhibitory concentration (MIC) against Enterococcus faecalis was 64 µg/mL (≈ 212 µM); against Staphylococcus aureus, 8 µg/mL (≈ 26.6 µM).
Taken in the same sequence, the figures for `CCS(=O)(=O)c1ccc(N2C[C@H](CNC(C)=O)OC2=O)cc1` were 8 µg/mL (≈ 24.5 µM) and 8 µg/mL (≈ 24.5 µM).
Taken in the same sequence, the figures for `CC(=O)NC[C@H]1CN(c2ccc(C(F)(F)F)cc2)C(=O)O1` were 8 µg/mL (≈ 26.5 µM) and 8 µg/mL (≈ 26.5 µM).
Taken in the same sequence, the figures for `CCCCOc1ccc(N2C[C@H](CNC(C)=O)OC2=O)cc1` were 16 µg/mL (≈ 52.2 µM) and 8 µg/mL (≈ 26.1 µM).
Consider `CCC(O)c1ccc(N2C[C@H](CNC(C)=O)OC2=O)cc1` (stereo partly specified), for which the results for the MIC against Enterococcus faecalis and against Staphylococcus aureus were 64 µg/mL (≈ 219 µM) and 32 µg/mL (≈ 109 µM), respectively.
For `CSc1ccc(N2C[C@H](CNC(C)=O)OC2=O)cc1`, the minimum inhibitory concentration (MIC) in the experiment with Enterococcus faecalis and against Staphylococcus aureus was 4 µg/mL (≈ 14.3 µM) throughout.
Turning to `CC(=O)NCC1CN(c2ccc(Cl)cc2)C(=O)O1` (racemic), the MIC worked out at 64 µg/mL (≈ 238 µM) against Enterococcus faecalis and 32 µg/mL (≈ 119 µM) in the experiment on Staphylococcus aureus.
Taken in the same sequence, the figures for `CCOC(=O)c1ccc(N2CC(CNC(C)=O)OC2=O)cc1` (racemic) were 4 µg/mL (≈ 13.1 µM) and 4 µg/mL (≈ 13.1 µM).
Taken in the same sequence, the figures for `CCCSc1ccc(N2C[C@H](CNC(C)=O)OC2=O)cc1` were 8 µg/mL (≈ 25.9 µM) and 8 µg/mL (≈ 25.9 µM).
Taken in the same sequence, the figures for `CCCC(O)c1ccc(N2C[C@H](CNC(C)=O)OC2=O)cc1` (stereo partly specified) were 32 µg/mL (≈ 104 µM) and 16 µg/mL (≈ 52.2 µM).
Turning to `CC(=O)NC[C@H]1CN(c2ccc(C(C)O)cc2)C(=O)O1` (stereo partly specified), the MIC against Enterococcus faecalis and in the experiment with Staphylococcus aureus was 4 µg/mL (≈ 14.4 µM) throughout.
For `CC(=O)NC[C@H]1CN(c2ccc(C=O)cc2)C(=O)O1`, the minimal inhibitory concentration (MIC) against Enterococcus faecalis and against Staphylococcus aureus was 8 µg/mL (≈ 30.5 µM) in each case.
`CCc1ccc(N2C[C@H](CNC(C)=O)OC2=O)cc1`: the MIC against Enterococcus faecalis stood at 8 µg/mL (≈ 30.5 µM); against Staphylococcus aureus, 4 µg/mL (≈ 15.2 µM).
Taken in the same sequence, the figures for `CC(=O)NC[C@H]1CN(c2ccc(C(=O)CBr)cc2)C(=O)O1` were 8 µg/mL (≈ 22.5 µM) and 4 µg/mL (≈ 11.3 µM).
Taken in the same sequence, the figures for `CCC(=O)c1ccc(N2C[C@H](CNC(C)=O)OC2=O)cc1` were 0.5 µg/mL (≈ 1.72 µM) and 1 µg/mL (≈ 3.44 µM).
Turning to `CC(=O)NC[C@H]1CN(c2ccc(C(=O)C(C)C)cc2)C(=O)O1`, the MIC with Enterococcus faecalis and in the experiment with Staphylococcus aureus was 1 µg/mL (≈ 3.29 µM) in each case.

For orientation: MIC means the lowest concentration found to suppress growth.
